Results reported in patent US20060004087A1, “Tetracyclic compounds as estrogen ligands” (Wyeth, priority 2004, published 2006).

Legend:
[1] = target: T1, human ERβ (Homo sapiens, UniProt Q92731); test: Competition with [3H]-17β-estradiol for ERβ ligand binding domain; conditions: E. coli lysate expressing ER ligand binding domains (D, E, & F); 2 nM [3H]-17β-estradiol; 5-15 hours at room temperature
T1 construct: made in house; host or cells: E. coli (crude lysate)
Description: (§1) This test procedure provides the methodology for one to determine whether a particular compound binds to the ER (and is therefore, “estrogenic”) and whether there is selectivity for ERα or ERβ. […] The procedure used is described briefly below. A crude lysate of E. coli expressing the ER ligand binding domains (D, E, & F) of human ERα or ERβ was prepared. Both ERs and compounds were diluted in 1× Dulbecco's Phosphate Buffered Saline (DPBS) supplemented with 1 mM EDTA. […] After between 5 and 15 hours at room temperature, the plates were washed with DPBS/1 mM EDTA and bound radioactivity determined by liquid scintillation counting.

[2] = target: T2, human ERα (Homo sapiens, UniProt P03372); test: Competition with [3H]-17β-estradiol for ERα ligand binding domain; conditions: E. coli lysate expressing ER ligand binding domains (D, E, & F); 2 nM [3H]-17β-estradiol; 5-15 hours at room temperature
T2 construct: made in house; host or cells: E. coli (crude lysate)
T2 sequence (P03372 311-547 limits assumed): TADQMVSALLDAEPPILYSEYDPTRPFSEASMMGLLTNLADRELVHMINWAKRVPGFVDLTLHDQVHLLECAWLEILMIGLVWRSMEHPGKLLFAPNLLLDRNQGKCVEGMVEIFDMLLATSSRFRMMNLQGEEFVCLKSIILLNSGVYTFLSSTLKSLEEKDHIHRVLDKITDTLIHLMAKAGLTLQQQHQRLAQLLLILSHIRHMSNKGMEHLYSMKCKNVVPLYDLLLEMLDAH
Description: as §1

T1 sequence (Q92731 264-498 limits assumed): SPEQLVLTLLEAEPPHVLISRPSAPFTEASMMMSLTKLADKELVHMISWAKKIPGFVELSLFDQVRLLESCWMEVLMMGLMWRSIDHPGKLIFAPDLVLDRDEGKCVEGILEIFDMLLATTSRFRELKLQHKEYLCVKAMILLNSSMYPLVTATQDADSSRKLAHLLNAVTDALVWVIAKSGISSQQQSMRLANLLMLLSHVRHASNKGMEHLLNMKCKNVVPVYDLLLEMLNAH

Molecule: Oc1ccc2c(c1)OCc1c-2oc2ccc(O)cc12 [Example 9, 6H-BENZO[4,5]FURO[3,2-C]CHROMEN-3,8-DIOL]
- IC50 [1]: 4 nM
- IC50 [2]: 129 nM

Molecule: N#Cc1c(O)ccc2c1oc1c3cc(O)ccc3ccc21 [Example 13, 2,9-DIHYDROXY-BENZO[B]NAPHTHO[2,1-D]FURAN-10-CARBONITRILE]
- melting point: 291 to 295 °C

Molecule: Oc1ccc2c(c1)CCc1c-2oc2cc(O)ccc12 [Example 1, 5,6-DIHYDRO-BENZO[B]NAPHTHO[2,1-D]FURAN-3,9-DIOL]
- IC50 [1]: 3 nM
- IC50 [2]: 18 nM

Molecule: 2,9-DIHYDROXY-5,6-DIHYDRO-BENZO[B]NAPHTHO[2,1-D]FURAN-10-BENZONITRILE [Example 12]
- IC50 [1]: 757 nM
- IC50 [2]: 2790 nM

Molecule: Oc1ccc2c(c1)oc1c3ccc(O)cc3c(Br)cc21 [Example 3, 5-BROMO-BENZO[B]NAPHTHO[2,1-D]FURAN-3,9-DIOL]
- IC50 [1]: 12 nM
- IC50 [2]: 70 nM

Molecule: Oc1ccc2c(c1)OCc1c-2oc2c(Br)cc(O)cc12 [Example 11, 10-BROMO-6H-BENZO[4,5]FURO[3,2-C]CHROMENE-3,8-DIOL]
- IC50 [1]: 1 nM
- IC50 [2]: 42 nM

Molecule: N#Cc1cc(O)cc2c3c(oc12)-c1ccc(O)cc1CCC3 [Example 5, 3,9-DIHYDROXY-6,7-DIHYDRO-5H-12-OXA-DIBENZO[A,E]AZULEN-11-CARBONITRILE]
- IC50 [1]: 17 nM
- IC50 [2]: 1500 nM

Molecule: N#Cc1cc(O)cc2c3c(oc12)-c1ccc(O)cc1OC3 [Example 10, 3,8-DIHYDROXY-6H-BENZO[4,5]FURO[3,2-C]CHROMENE-10-CARBONITRILE]
- IC50 [1]: 2 nM
- IC50 [2]: 159 nM

Molecule: Oc1ccc2c(ccc3c4ccc(O)cc4oc23)c1 [Example 2, BENZO[B]NAPHTHO[2,1-D]FURAN-3,9-DIOL]
- IC50 [1]: 1 nM
- IC50 [2]: 12 nM

Molecule: N#Cc1c(O)ccc2c3c(oc12)-c1ccc(O)cc1CC3 [Example 6, 3,9-DIHYDROXY-5,6-DIHYDRO-BENZO[B]NAPHTHO[2,1-D]FURAN-10-CARBONITRILE]
- IC50 [1]: 5 nM
- IC50 [2]: 82 nM
- melting point: > 300 °C

Molecule: N#Cc1cc(O)cc2c3c(oc12)-c1ccc(O)cc1CC3 [Example 4, 3,8-DIHYDROXY-5,6-DIHYDRO-BENZO[B]NAPHTHO[2,1-D]FURAN-10-CARBONITRILE]
- IC50 [1]: 1.2 nM
- IC50 [2]: 150 nM
- melting point: 355 to 358 °C

Molecule: N#Cc1c(O)ccc2c1oc1c3ccc(O)cc3ccc21 [Example 7, 3,9-DIHYDROXY-BENZO[B]NAPHTHO[2,1-D]FURAN-10-CARBONITRILE]
- IC50 [1]: 3 nM
- IC50 [2]: 55 nM
- melting point: > 300 °C
